Results taken from patent publication US20240252668A1, “ANTIBODY DRUG CONJUGATES AND METHODS FOR MAKING THEREOF” (Novartis AG, priority 2021, published 2024).
Like-named read-outs stand apart in the source and are kept apart here. Starred links: 1 amine or outer side, 2 acyl side, 3 side chain; linkers in the order of their positions; H or OH if unused. Positions of bridges follow the written chain, without caps; N, C: chain ends. Non-standard residues stand in square brackets, D forms with d. Residues, ends and D or L forms follow the SMILES beside them. *: point of attachment. Leu(3R-OH,Nα-propionyl) = CCC(=O)N[C@H](C(=O)*)[C@H](O)C(C)C; X1 = CC(C)[C@@H](O[*:3])[C@H](N[*:1])C(=O)[*:2]; X5 = CSC[C@@H](O[*:3])[C@H](N[*:1])C(=O)[*:2]; X4 = CCC(=O)N[C@H](C(=O)*)[C@H](O)CSC; NMeT = CN[C@H](C(=O)O)[C@@H](C)O; dPhLac = O=C(O)[C@H](O)Cc1ccccc1; NMeA = CN[C@@H](C)C(=O)O; NMeDha = C=C(NC)C(=O)O

How the values were obtained:
[1] = system: 92.1 uveal melanoma cell line (heterozygous GNAQ Q209L); assay: Cell proliferation assay (resazurin cell viability), 92.1 cell line; type: cell-based
Excerpt: (§1) Cell Proliferation Assays with Chromodepsins (compounds (A1) and 2-15): Cell line descriptions: 92.1—uveal melanoma cell line, derived from primary tumor, harboring heterozygous GNAQ Q209L mutation. Purchased from Sigma Aldrich. MP41 (CRL-3297) -uveal melanoma cell line, derived from primary tumor, harboring heterozygous GNA11 Q209L mutation. Purchased from ATCC. A375—skin melanoma cell line, harboring homozygous BRAF V600E mutation. Origin: Cancer Cell Line Encyclopedia (CCLE). SK-MEL-30—skin melanoma cell line, harboring heterozygous NRAS Q61K mutation. Origin: CCLE.
(§2) Cells were cultured in 96-well plates in a total volume of 100 μL at 37° C., 5% CO2 and 95% relative humidity. All cell lines were cultured in RPMI Medium (RPMI 1640 w/o L-glutamine, Bioconcept ref. 1-41F01-I) except A375, DMEM medium (DMEM high glucose (4.5 g/L), Bioconcept, ref. 1-26F01-I), and supplemented with 10% FCS (Bioconcept, ref. 2-01F30-I). Two to three thousand cells were seeded in 96-well plates per well the night before they were treated with compounds (concentration range: from 260 nM to 0.036 nM with ⅓ dilution steps; for 7 the concentration range was increased from 10000 nM to 1.52 nM with ⅓ dilution steps). Cell viability was measured by addition of 10 ul of resazurin per well after 96 hours of treatment. Results were analyzed and plotted using GraphPad Prism 9.0.1.

[2] = system: MP41 uveal melanoma cell line (heterozygous GNA11 Q209L); assay: Cell proliferation assay (resazurin cell viability), MP41 cell line; type: cell-based
Excerpt: as §1, §2

[3] = system: A375 skin melanoma cell line (homozygous BRAF V600E); assay: Cell proliferation assay (resazurin cell viability), A375 cell line; type: cell-based
Excerpt: as §1, §2

[4] = system: SK-MEL-30 skin melanoma cell line (heterozygous NRAS Q61K); assay: Cell proliferation assay (resazurin cell viability), SK-MEL-30 cell line; type: cell-based
Excerpt: as §1, §2

[5] = system: 92.1 and MP41 cell lines (GNAQ/GNA11 mutant uveal melanoma); assay: Cell proliferation assays, potency ranking over both uveal melanoma lines; type: cell-based; conditions: 92.1 and MP41 cell lines
Excerpt: The selective antiproliferative profile of the chromodepsins against GNAQ/GNA11 mutant cell lines is confirmed by the lack of activity against the A375 and SK MEL 30 cell lines that are independent from GNAQ/GNA11 signaling. The potency ranking using the 92.1 and MP41 cell lines is in good agreement with the previously SAR studies. […] These findings are in line with a recent report from Voss et al., highlighting the importance of the “lipophilic anchors” of compound (A1) at the residues varied in compounds 2 and 3, in context of binding kinetics and prolonged residence time on the target proteins. The retained potency of compound 4 indicates a promising exit vector for potential synthetic or biosynthetic modifications of the scaffold. […] The linearized depsipeptides compounds 5-7 lack any antiproliferative activity. In this experimental setup, the cellular permeability of the compounds was a crucial factor contributing to the observed antiproliferative potency. Therefore, all compounds were characterized in a low efflux MCDK assay and determined their exposed polar surface areas (EPSA) in order to assess their passive cellular permeabilities. All macrocyclic chromodepsins that feature the N acyl Hle side chain show similar results concerning their % fraction absorbed (% FA; average ˜60% FA+20%) and EPSA values.
as §1, §2

MDCK-LE monolayers = assay: Cell-based transwell assay with MDCK-low efflux monolayers (passive permeability); type: in vitro ADME; conditions: MDCK-LE monolayers
Method: Cell-based transwell assays with MDCK-low efflux monolayers: Compounds (A1) and 2-15 were tested in MDCK cell sub-clones with low effluxt ransporter activity (MDCK-LE) in order to determine their passive permeability. The incubations were performed at a contract research organization as described previously.

[6] = EPSA determination by supercritical fluid chromatography; type: physicochemical; conditions: modified EPSA method, SFC
Method: […] by supercritical fluid chromatography: Compounds (A1) and 2-15 were tested by supercritical fluid chromatography (SFC) to determine their ESAPSA values. Samples were analyzed using a Chirex 3014 column ([…], 3×100 mm column, 100 Å pore size; Phenomenex. The starting conditions were 5% methanol containing 20 mM ammonium formate and 95% scCO2. The gradient was increased linearly to 60% methanol containing 20 mM ammonium formate in 4.5 min.

[7] = 92.1 (GNAQ Q209L), 96 hours of treatment, read-out: GI50 by cell line, 92.1
[8] = 92.1 cell line, average of Rep. 1 and 2, read-out: GI50 92.1 Average
[9] = 92.1 cell line, replicate 1, read-out: GI50 92.1 Rep. 1
[10] = 92.1 cell line, replicate 2, read-out: GI50 92.1 Rep. 2
[11] = MP41 (GNA11 Q209L), 96 hours of treatment, read-out: GI50 by cell line, MP41
[12] = MP41 cell line, average of Rep. 1 and 2, read-out: GI50 MP41 Average
[13] = MP41 cell line, replicate 1, read-out: GI50 MP41 Rep. 1
[14] = MP41 cell line, replicate 2, read-out: GI50 MP41 Rep. 2
[15] = A375 (GNAQ/11 wild type), 96 hours of treatment, read-out: GI50 by cell line, A375
[16] = A375 cell line, average of Rep. 1 and 2, read-out: GI50 A375 Average
[17] = A375 cell line, replicate 1, read-out: GI50 A375 Rep. 1
[18] = A375 cell line, replicate 2, read-out: GI50 A375 Rep. 2
[19] = SK-MEL-30 (GNAQ/11 wild type), 96 hours of treatment, read-out: GI50 by cell line, SK-MEL-30
[20] = SK-MEL-30 cell line, average of Rep. 1 and 2, read-out: GI50 SK-MEL-30 Average
[21] = SK-MEL-30 cell line, replicate 1, read-out: GI50 SK-MEL-30 Rep. 1
[22] = SK-MEL-30 cell line, replicate 2, read-out: GI50 SK-MEL-30 Rep. 2

Row | Compound | GI50 [1, 7] [nM] | GI50 [1, 8] [nM] | GI50 [1, 9] [nM] | GI50 [1, 10] [nM] | GI50 [2, 11] [nM] | GI50 [2, 12] [nM] | GI50 [2, 13] [nM] | GI50 [2, 14] [nM] | GI50 [3, 15] [nM] | GI50 [3, 16] [nM] | GI50 [3, 17] [nM] | GI50 [3, 18] [nM] | GI50 [4, 19] [nM] | GI50 [4, 20] [nM] | GI50 [4, 21] [nM] | GI50 [4, 22] [nM] | loss of potency compared to compound (A1) (growth inhibition) [5] | % Fraction absorbed (MDCK-LE monolayers) [%] | % Recovery (MDCK-LE monolayers) [%] | Papp A − B (MDCK-LE monolayers) [×10⁻⁶ cm/s] | also measured
1 | C=C1C(=O)N[C@@H](C)C(=O)N(C)[C@@H](C)C(=O)N[C@@H]([C@H](OC(=O)[C@@H](NC(=O)CC)[C@H](O)C(C)C)C(C)C)C(=O)N(C)[C@@H]([C@@H](C)OC)C(=O)O[C@H](CSC)[C@H](NC(C)=O)C(=O)O[C@H](Cc2ccccc2)C(=O)N1C [Compound 2] (Ac-[X5][dPhLac][NMeDha]A[NMeA][X1](Leu(3R-OH,Nα-propionyl))[NMeT](Me); ester 1-C) | 9.8 | 9.8 | 8 | 11.6 | 3.7 | 3.7 | 3.17 | 4.3 | > 260 | > 260 | > 260 | > 260 | > 260 | > 260 | > 260 | > 260 | ~15 fold | 72.6 | 72 | 6.35 | EPSA [6]: 104 A^2
2 | C=C1C(=O)N[C@@H](C)C(=O)N(C)[C@@H](C)C(=O)N[C@@H]([C@@H](CSC)OC(=O)[C@@H](NC(=O)CC)[C@H](O)C(C)C)C(=O)N(C)[C@@H]([C@@H](C)OC)C(=O)O[C@H](C(C)C)[C@H](NC(C)=O)C(=O)O[C@H](Cc2ccccc2)C(=O)N1C [Compound 3] (Ac-[X1][dPhLac][NMeDha]A[NMeA][X5](Leu(3R-OH,Nα-propionyl))[NMeT](Me); ester 1-C) | 10.4 | 10.4 | 9.05 | 11.7 | 4 | 4 | 3.12 | 4.89 | > 260 | > 260 | > 260 | > 260 | > 260 | > 260 | > 260 | > 260 | ~15 fold | 86.1 | 90 | 12.2 | EPSA [6]: 98 A^2
3 | C=C1C(=O)N[C@@H](C)C(=O)N(C)[C@@H](C)C(=O)N[C@@H]([C@H](OC(=O)[C@@H](NC(=O)CC)[C@H](O)CSC)C(C)C)C(=O)N(C)[C@@H]([C@@H](C)OC)C(=O)O[C@H](C(C)C)[C@H](NC(C)=O)C(=O)O[C@H](Cc2ccccc2)C(=O)N1C [Compound 4] (Ac-[X1][dPhLac][NMeDha]A[NMeA][X1](X4)[NMeT](Me); ester 1-C) | 1.2 | 1.2 | 0.91 | 1.5 | 0.5 | 0.5 | 0.45 | 0.53 | > 260 | > 260 | > 260 | > 260 | > 260 | > 260 | > 260 | > 260 | two-fold | 32.5 | 75 | 1.71 | EPSA [6]: 104 A^2
